Test results taken from patent US10662203B2, “Pyrido[2,3-b]indole compounds for the treatment and prophylaxis of bacterial infection” (Hoffmann-La Roche Inc., priority 2017, dated 2020).

Columns and labels:
Assay in all cases: 50% growth inhibitory concentration (IC50) determination assay
Assay type in all cases: cell-based
A. baumannii (ATCC17978) = details: Iso-Sensitest broth, 0.098 = detection limit
Procedure: (§1) Stock compounds in DMSO were serially two-fold diluted (range from 50 to 0.097 μM final concentration) in 384 wells microtiter plates and inoculated with 49 μL the bacterial suspension in Iso-Sensitest broth medium to have a final cell concentration of ˜5×10^5 CFU/mL in a final volume/well of 50 μL/well. Microtiter plates were incubated at 35±2° C. Bacterial cell growth was determined with the measurement of optical density at λ=600 nm each 20 minutes over a time course of 16 h. […] GP-6 (Example 4.131 disclosed in WO 2012/125746 A1) was used as the reference compound in Table 6-8. […] The data of IC50 over S. aureus (ATCC29213), K. pneumoniae (ATCC10031), and A. baumannii (ATCC17978) are illustrated in Table 6.

[1] = system: K. pneumoniae (ATCC10031); details: Klebsiella pneumoniae, Iso-Sensitest broth, 0.098 = detection limit
Procedure: as §1

S. aureus (ATCC29213) = details: Staphylococcus aureus, Iso-Sensitest broth, 0.098 = detection limit
Procedure: as §1

[2] = Acinetobacter baumannii, ATCC17978, A. baumannii ATCC17978

Compound | IC50 (A. baumannii (ATCC17978); [2]) | IC50 [1] | IC50 (S. aureus (ATCC29213)) | IC50 (A. baumannii (ATCC17978); A. baumannii ATCC17978)
CNc1cc(F)c(F)c2c1[nH]c1ncc(-c3cnc4c(c3)c(=O)c(C(=O)O)cn4C)c(N3CCN(C4CC4)CC3)c12 [Example 1.204] | 0.201 µM | < 0.098 µM | < 0.098 µM | 
CNc1cc(Cl)cc2c1[nH]c1ncc(-c3cnc4c(c3)c(=O)c(C(=O)O)cn4C)c(N3CC4C(N(C)C)CO[C@@H]4C3)c12 (stereo partly drawn) [Example 1.277] | 0.48 µM | < 0.098 µM | < 0.098 µM | 
CNc1cc(F)c(F)c2c1[nH]c1ncc(-c3cnc4c(c3)c(=O)c(C(=O)O)cn4C)c(N3CCC(OC)CC3)c12 [Example 1.40] | 0.364 µM | 0.264 µM | < 0.098 µM | 
CNc1c(F)c(F)cc2c1[nH]c1ncc(-c3cnc4c(c3)c(=O)c(C(=O)O)cn4C3CCNC3)c(N3CCCC3)c12 (stereo not drawn) [Example 1.76] | 0.643 µM | < 0.098 µM | < 0.098 µM | 
CNc1cc(F)cc2c1[nH]c1ncc(-c3cnc4c(c3)c(=O)c(C(=O)O)cn4C)c(N3CCC(C)(CN(C)C)C3)c12 (stereo not drawn) [Example 1.102] | 0.134 µM | < 0.098 µM | < 0.098 µM | 
CNc1cc(F)c(F)c2c1[nH]c1ncc(-c3cnc4c(c3)c(=O)c(C(=O)O)cn4NC)c(N3CC4[C@H](CC[C@H]4N(C)C)C3)c12 (stereo partly drawn) [Example 1.284] | 0.111 µM | < 0.098 µM | < 0.098 µM | 
CNc1cc(F)cc2c1[nH]c1ncc(-c3cnc4c(c3)c(=O)c(C(=O)O)cn4C)c(N3CCCC3)c12 [Example 1.46] | 0.277 µM | < 0.098 µM | < 0.098 µM | 
CNc1cc(F)c(F)c2c1[nH]c1ncc(-c3cnc4c(c3)c(=O)c(C(=O)O)cn4NC)c(N3C[C@H]4OCCN(C)[C@H]4C3)c12 [Example 3.13A] | 0.152 µM | < 0.098 µM | < 0.098 µM | 
CNc1cc(F)c(F)c2c1[nH]c1ncc(-c3cnc4c(c3)c(=O)c(C(=O)O)cn4C)c(N3CCC(CNC4CC4)C3)c12 (stereo not drawn) [Example 1.137] | 0.151 µM | < 0.098 µM | < 0.098 µM | 
CNc1cc(F)c(F)c2c1[nH]c1ncc(-c3cnc4c(c3)c(=O)c(C(=O)O)cn4C)c(N3CCN(C)CC3)c12 [Example 1.226] | 0.207 µM | < 0.098 µM | 0.11 µM | 
CNc1cc(F)cc2c1[nH]c1ncc(-c3cnc4c(c3)c(=O)c(C(=O)O)cn4C)c(N3CCC(F)(CN(C)C)C3)c12 (stereo not drawn) [Example 1.109] | 0.066 µM | < 0.098 µM | < 0.098 µM | 
CNc1cc(F)c(F)c2c1[nH]c1ncc(-c3cnc4c(c3)c(=O)c(C(=O)O)cn4C3CCOC3)c(N(C)C)c12 (stereo not drawn) [Example 1.21] | 0.469 µM | 0.154 µM | < 0.098 µM | 
CNc1cc(F)c(F)c2c1[nH]c1ncc(-c3cnc4c(c3)c(=O)c(C(=O)O)cn4C)c(N(C)C)c12 [Example 1.01, 6-[4-(Dimethylamino)-5,6-difluoro-8-(methylamino)-9H-pyrido[2,3-b]indol-3-yl]-1-methyl-4-oxo-1,8-naphthyridine-3-carboxylic acid] | < 0.098 µM | < 0.098 µM | < 0.098 µM | 
CNc1cc(F)c(F)c2c1[nH]c1ncc(-c3cnc4c(c3)c(=O)c(C(=O)O)cn4CC3(O)CC3)c(N(C)C)c12 [Example 1.146] | 0.525 µM | 0.411 µM | < 0.098 µM | 
CCC(Cn1cc(C(=O)O)c(=O)c2cc(-c3cnc4[nH]c5c(NC)cc(F)c(F)c5c4c3N3CCOCC3)cnc21)N(C)C (stereo not drawn) [Example 1.79] | 0.173 µM | < 0.098 µM | < 0.098 µM | 
CNc1cc(F)cc2c1[nH]c1ncc(-c3cnc4c(c3)c(=O)c(C(=O)O)cn4C)c(N3C[C@H]4OCCN(C)[C@H]4C3)c12 [Example 3.22A] | 0.363 µM | < 0.098 µM | < 0.098 µM | 
CNc1cc(F)c(F)c2c1[nH]c1ncc(-c3cnc4c(c3)c(=O)c(C(=O)O)cn4NC)c(N(C)C)c12 [Example 1.72] | < 0.098 µM | < 0.098 µM | < 0.098 µM | 
CNc1cc(F)cc2c1[nH]c1ncc(-c3cnc4c(c3)c(=O)c(C(=O)O)cn4C)c(N3C[C@H](F)[C@@H](N(C)C)C3)c12 [Example 1.169] | 0.229 µM | < 0.098 µM | < 0.098 µM | 
CNc1cc(F)cc2c1[nH]c1ncc(-c3cnc4c(c3)c(=O)c(C(=O)O)cn4C(C)(C)CN3CCCC3)c(N(C)C)c12 [Example 1.17] | 0.515 µM | 0.101 µM | < 0.098 µM | 

Other lines, results leading:

IC50 (A. baumannii (ATCC17978); [2]) | IC50 [1] | IC50 (S. aureus (ATCC29213)) | IC50 (A. baumannii (ATCC17978); A. baumannii ATCC17978) | Compound
0.276 µM | 0.282 µM | < 0.098 µM |  | CNc1cc(F)c(F)c2c1[nH]c1ncc(-c3cnc4c(c3)c(=O)c(C(=O)O)cn4C3CC3)c(N(C)C)c12 [Example 1.95]
0.049 µM | < 0.098 µM | < 0.098 µM |  | CNc1cc(F)c(F)c2c1[nH]c1ncc(-c3cnc4c(c3)c(=O)c(C(=O)O)cn4C)c(N3CCC(NC4CC4)C3)c12 (stereo not drawn) [Example 1.115]
0.291 µM | 0.111 µM | < 0.098 µM |  | CNc1cc(F)c(F)c2c1[nH]c1ncc(-c3cnc4c(c3)c(=O)c(C(=O)O)cn4C)c(N3CCC[C@H]3CO)c12 [Example 1.77]
0.208 µM | < 0.098 µM | < 0.098 µM |  | CNc1cc(Cl)cc2c1[nH]c1ncc(-c3cnc4c(c3)c(=O)c(C(=O)O)cn4C)c(N3C[C@H]4CCN(C)[C@H]4C3)c12 [Example 3.15A]
0.238 µM | < 0.098 µM | < 0.098 µM |  | CCN(CC)CCn1cc(C(=O)O)c(=O)c2cc(-c3cnc4[nH]c5c(NC)cc(F)c(F)c5c4c3N3CCOCC3)cnc21 [Example 1.73]
0.341 µM | 0.202 µM | < 0.098 µM |  | CNc1cc(F)c(F)c2c1[nH]c1ncc(-c3cnc4c(c3)c(=O)c(C(=O)O)cn4C(C)CCO)c(N(C)C)c12 (stereo not drawn) [Example 1.145]
0.438 µM | < 0.098 µM | < 0.098 µM |  | CNc1cc(F)cc2c1[nH]c1ncc(-c3cnc4c(c3)c(=O)c(C(=O)O)cn4CC(C)(C)N(C)C)c(N3CCOCC3)c12 [Example 1.69]
0.132 µM | < 0.098 µM | < 0.098 µM |  | CNc1cc(F)c(F)c2c1[nH]c1ncc(-c3cnc4c(c3)c(=O)c(C(=O)O)cn4C3CCN(C)C3)c(N(C)C)c12 (stereo not drawn) [Example 1.130]
0.326 µM | 0.132 µM | < 0.098 µM |  | CCn1cc(C(=O)O)c(=O)c2cc(-c3cnc4[nH]c5c(NC)cc(F)c(F)c5c4c3N(C)C)cnc21 [Example 1.18]
0.328 µM | < 0.098 µM | 3.8 µM |  | CNc1cc(F)c(F)c2c1[nH]c1ncc(-c3cnc4c(c3)c(=O)c(C(=O)O)cn4[C@@H]3CCNC3)c(N(C)C)c12 [Example 1.155]
0.103 µM | < 0.098 µM | < 0.098 µM |  | CNc1cc(F)c(F)c2c1[nH]c1ncc(-c3cnc4c(c3)c(=O)c(C(=O)O)cn4C)c(N3C[C@@H]4OCCN(C)[C@@H]4C3)c12 [Example 3.14B]
 | < 0.098 µM | < 0.098 µM | 0.287 µM | CNc1cc(F)c(F)c2c1[nH]c1ncc(-c3cnc4c(c3)c(=O)c(C(=O)O)cn4C)c(N3C[C@H](F)[C@@H](N(C)C)C3)c12 [Example 1.168]
0.3 µM | < 0.098 µM | 0.169 µM |  | CCN1CCN(c2c(-c3cnc4c(c3)c(=O)c(C(=O)O)cn4C)cnc3[nH]c4c(NC)cc(F)c(F)c4c23)CC1 [Example 1.233]
0.821 µM | < 0.098 µM | 0.283 µM |  | CNc1cc(F)c(F)c2c1[nH]c1ncc(-c3cnc4c(c3)c(=O)c(C(=O)O)cn4C)c(N3CCN(C(C)C)CC3)c12 [Example 1.234]
0.619 µM | < 0.098 µM | < 0.098 µM |  | CNc1cc(F)cc2c1[nH]c1ncc(-c3cnc4c(c3)c(=O)c(C(=O)O)cn4C(C)CN(C)C)c(N3CCOCC3)c12 (stereo not drawn) [Example 1.70]
0.088 µM | < 0.098 µM | < 0.098 µM |  | CNc1cc(F)c(F)c2c1[nH]c1ncc(-c3cnc4c(c3)c(=O)c(C(=O)O)cn4C)c(N3CCC(F)(CN(C)C)C3)c12 (stereo not drawn) [Example 1.108]
